Source: ChEMBL document CHEMBL1201862, “PubChem BioAssay data set” (2004)
Calls of active or inactive are those of the source. Rule as the data show it, for most assays here: actives have a measured EC50 and inactives only a lower limit.

Tests used:
[1] = biological target: T1, Calpain-2 catalytic subunit (Sus scrofa, UniProt P43367); assay: m-calpain protease blockers, concentration series – biochemical, fluorogenic peptide substrate, dose response (AID 1420); assay type: functional
T1 sequence (P43367 whole entry): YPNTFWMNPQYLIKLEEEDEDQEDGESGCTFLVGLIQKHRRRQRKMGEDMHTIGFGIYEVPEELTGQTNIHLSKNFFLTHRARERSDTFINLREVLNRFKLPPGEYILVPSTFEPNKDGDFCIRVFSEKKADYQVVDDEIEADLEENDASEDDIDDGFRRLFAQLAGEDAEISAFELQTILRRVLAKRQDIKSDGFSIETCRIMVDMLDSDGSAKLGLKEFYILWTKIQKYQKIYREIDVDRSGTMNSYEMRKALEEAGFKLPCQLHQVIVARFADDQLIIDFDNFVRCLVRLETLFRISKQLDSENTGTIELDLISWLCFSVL

[2] = Luminescence Cell-Based Dose Response HTS to Identify Activators of Luciferase Translation or Activity in H4 […] Cells. [Related pubchem assays: 1829 (Project Summary), 1814 (Primary HTS)]; assay type: functional
[3] = Luminescence Cell-Based Dose Confirmation HTS to Identify Activators of 5'UTR Stem-Loop Driven Alpha-Synuclein mRNA Translation in H4 Neuroglioblastoma Cells. [Related pubchem assays: 1829 (Project Summary), 1814 (Primary HTS)]; assay type: functional
H4 = assay: Luminescence Cell-Based Dose Response HTS to Identify Activators of 5'UTR Stem-Loop Driven Prion Protein mRNA Translation in H4 Neuroglioblastoma Cells. [Related pubchem assays: 1829 (Project Summary), 1814 (Primary HTS)]; assay type: functional; details: Homo sapiens
[4] = viability of uninfected HEp-2 cells – cell-based, HTS, cytotoxicity control for RSV inhibitor project, dose response (AID 2410); assay type: functional; details: human respiratory syncytial virus
[5] = fluconazole-exposed Candida albicans growth modulators – fluorescence, retest, confirmation (AID 2467); assay type: functional, cell-based
[6] = NIH-3T3 fibroblast cytotoxicity, dose response, cytotoxicity control, cell-based, fluorescence, Alamar Blue, secondary assay (AID 2327); assay type: functional;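 also: NIH-3T3 mouse fibroblasts cultured with fluconazole at 8 µg/mL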
Streptokinase A = biological target: T2, Streptokinase A (Streptococcus pyogenes serotype M1, UniProt P10520); assay: viability-normalized secreted streptokinase activity reduction – plasminogen activation absorbance, OD405, dose response (AID 1914); assay type: functional, Streptococcus pyogenes M1 GAS;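 also: secreted streptokinase activity via plasminogen activation per viability signal from cell pellet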
T2 sequence (P10520 whole entry): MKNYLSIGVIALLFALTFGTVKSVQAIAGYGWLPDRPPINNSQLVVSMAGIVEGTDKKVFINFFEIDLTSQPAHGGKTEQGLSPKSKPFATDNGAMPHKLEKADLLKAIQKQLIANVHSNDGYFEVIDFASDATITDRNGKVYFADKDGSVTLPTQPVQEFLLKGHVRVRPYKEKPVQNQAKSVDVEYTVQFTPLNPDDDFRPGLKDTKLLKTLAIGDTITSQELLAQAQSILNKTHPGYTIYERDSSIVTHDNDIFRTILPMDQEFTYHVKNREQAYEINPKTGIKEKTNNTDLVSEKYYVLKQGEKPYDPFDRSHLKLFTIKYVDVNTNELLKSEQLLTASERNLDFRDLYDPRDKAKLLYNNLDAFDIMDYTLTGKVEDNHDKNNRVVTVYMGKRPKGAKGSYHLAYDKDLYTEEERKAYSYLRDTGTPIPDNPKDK

[7] = test system: Streptococcus sp. 'group A'; assay: Streptococcus pyogenes SK(-)GAS viability under kanamycin – luminescence, BacTiterGlo, confirmation, counter-screen for streptokinase expression inhibitor project, dose response (AID 1900); assay type: functional, organism-based
[8] = Luminescence Cell-Based Dose Retest to Confirm Inhibitors of Cancer Stem Cells. [Related pubchem assays (depositor defined):AID2717, AID2721]; assay type: functional; details: Homo sapiens
Streptococcus = assay: GAS UMAA2166 growth inhibition – luminescence, BacTiterGlo, counter-screen for streptokinase expression inhibitor project, dose response (AID 1915); assay type: functional, organism-based;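 also: potency for reduction of bacterial viability or growth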
[9] = viability of PTEN-deleted HCT116 cells – cell-based, HCT116 PTEN knockout, dose response (AID 1047); assay type: functional;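 also: HCT116 colon tumor cells with PTEN knocked out; cells exposed to compound for 60 hours before readout; potency for loss of cell viability measured by luminescence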
[10] = DRD fibroblast viability loss – cell-based, non-viral oncogenic, luminescence, dose response (AID 1934); assay type: functional; details: Homo sapiens
BJ [11] = assay: cells; assay type: functional, cell-based; details: Homo sapiens
BJ [12] = assay: BJ-TERT fibroblast viability loss – cell-based, RAS-independent, luminescence, dose response (AID 1933); assay type: functional; details: Homo sapiens
BJ [13] = assay: BJ-TERT-LT-ST fibroblast viability loss – cell-based, RAS-independent, luminescence, dose response (AID 1935); assay type: functional; details: Homo sapiens;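 also: BJ fibroblasts immortalized with TERT plus LT and ST oncogenes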
[14] = reduction of Shn3 3'UTR-driven luciferase in osteoblasts – cell-based, Clone20 osteoblasts, firefly luciferase, cherry-picked, dose response (AID 624132); assay type: functional;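 also: firefly luciferase luminescence from reporter carrying the Shn3 3'UTR in osteoblasts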
[15] = non-specific 3'UTR reporter inhibition in Clone20-Shn3RL – cell-based, Renilla luciferase, cherry-picked, counter-screen for Shn3 inhibitor project, dose response (AID 624133); assay type: functional
[16] = loss of viability in HepG2 cells – cell-based, CellTiter-Glo, cherry-picked, cytotoxicity control for Shn3 inhibitor project, dose response (AID 624134); assay type: functional

CCC(=O)OCC(=O)c1cc(C)n(-c2ccc(Br)cc2)c1C
IC50 [1]: 6.49 µM (not active)

COCc1nc(-c2ccc(-c3ccc(C)cc3)nc2OC)no1
EC50 [2]: 76 µM (active)
EC50 [3]: > 120 µM (not active)
EC50 (H4): 14.2 µM (active)

COc1ccc2nc(N3C(=O)C(O)=C(C(=O)c4ccco4)C3c3ccccc3OC)sc2c1 (stereo not drawn)
EC50 [2]: > 120 µM (not active)
EC50 [3]: > 120 µM (not active)
EC50 (H4): 32.4 µM (active)

Cc1cc(=O)oc2c(C)c(OCC(=O)N3CCN(c4cccc(Cl)c4)CC3)ccc12
CC50 [4]: 29.2 µM (active)

O=C(O)/C=C/c1ccc(S(=O)(=O)Nc2ccc(C(=O)NCC(=O)O)cc2)cc1
EC50 [5]: > 38 µM (not active)
EC50 [6]: > 160 µM (inconclusive)

CSCCC(NS(=O)(=O)c1ccc(Cl)cc1)C(=O)OCC(=O)N1CCCc2ccccc21 (stereo not drawn)
IC50 [1]: 14.6 µM (not active)

COc1ccc(C(=O)Nc2nc3ccc(OC)cc3s2)cc1
CC50 [4]: 21.5 µM (active)

Cc1onc(-c2c(F)cccc2Cl)c1C(=O)NNC(=O)C1CCN(Cc2ccccc2)CC1
EC50 [5]: > 38 µM (not active)
EC50 [6]: > 150 µM (inconclusive)

Oc1cccc(Nc2nc(-c3ccccc3)nc3ccccc23)c1
CC50 [4]: 13.3 µM (active)

Cc1cc(C)nc(Nc2n[nH]c(-c3ccccc3Cl)n2)n1
EC50 [2]: 19.8 µM (active)
EC50 [3]: 12.3 µM (active)
EC50 (H4): 52.7 µM (inconclusive)

CCCCCCCCO/C(O)=C1\C(C)=Nc2nnnn2C1c1cccs1 (stereo not drawn)
IC50 [1]: 3.59 µM (not active)
EC50 (Streptokinase A): > 50 µM (not active)
EC50 [7]: 2.33 µM (active)
AC50 [8]: 6.65 µM (active)
EC50 (Streptococcus): 7.3 µM (active)

Cc1ncsc1CCOC(=O)C1C2CC3CC(C2)CC1C3 (stereo not drawn)
IC50 [1]: 45.8 µM (not active)

Cc1cc(C(=O)OCC(=O)N2CCc3ccccc32)c(C)o1
EC50 [2]: 21.6 µM (active)
EC50 [3]: 5.44 µM (active)
EC50 (H4): 13.4 µM (active)

Cc1cc(Br)ccc1SCC(=O)OCC(=O)c1c(N)n(C)c(=O)n(C)c1=O
IC50 [1]: 10.8 µM (active)

CCN(CC)S(=O)(=O)c1ccc(C(=O)NCc2ccc3c(c2)OCO3)cc1
IC50 [1]: > 50 µM (not active)

COc1cc(/C=C2/C(=O)NN(c3ccc(Cl)cc3)C2=O)cc(OC)c1O
EC50 [5]: 2.27 µM (inconclusive)
EC50 [6]: > 160 µM (inactive)

O=C(CC1CC2CCC1C2)OCC(=O)c1c[nH]c2ccccc12 (stereo not drawn)
IC50 [1]: 27.5 µM (not active)

O=C(Nc1ccc(-c2nc3ccccc3o2)cc1)c1cccnc1
EC50 [9]: 23.3 µM (active)

Cc1ccc(-c2csc(/C=C3\SC(C)C(=O)N3CC(=O)Nc3ccccc3F)n2)cc1 (stereo not drawn)
IC50 [1]: 10.6 µM (active)

Cc1ccc(-c2ccc([C@H]3[C@@H]4C=CCC[C@@]4(C)C(=O)N3Cc3ccccc3)c(F)c2)cc1
IC50 [1]: 3.65 µM (not active)
AC50 [8]: 3.55 µM (active)

COc1cc(/C=C2/SC(=S)N(CC(=O)Nc3cccnc3)C2=O)cc(OC)c1OC
EC50 [10]: > 150 µM (not active)
EC50 (BJ [11]): > 150 µM (not active)
EC50 (BJ [12]): > 150 µM (not active)
EC50 (BJ [13]): > 150 µM (inconclusive)

COc1ccc(S(=O)(=O)Oc2cccc(/C=N/NC3=NC(=O)C(CC(=O)O)S3)c2)cc1 (stereo not drawn)
IC50 [1]: > 50 µM (not active)

CC(OC(=O)c1ccccc1Nc1ccc(SC(F)F)cc1)C(N)=O (stereo not drawn)
IC50 [1]: 12 µM (not active)

CC/C(=C/c1ccccc1)c1cccc2[nH]c3c(OC)cccc3c12
AC50 [14]: 32.8 µM (active)
EC50 (Streptokinase A): 19.6 µM (active)
EC50 [7]: 1.87 µM (active)
AC50 [15]: 19 µM (active)
AC50 [16]: > 70 µM (inactive)
EC50 (Streptococcus): 4.75 µM (active)

O=C(Nc1ccc2c(c1)OCCO2)C(=O)c1c[nH]c2ccccc12
EC50 [10]: 4.19 µM (inconclusive)
EC50 (BJ [11]): 28.3 µM (active)
EC50 (BJ [12]): 14.2 µM (active)
EC50 (BJ [13]): 24.5 µM (inconclusive)
AC50 [8]: 0.718 µM (active)
